# PubChem BioAssay (NCI)
#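 Briefly, cells in 96-well plates were exposed to five compound concentrations for 48 h, and endpoints were estimated by linear interpolation. TGI: concentration producing complete growth inhibition.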
# Legend:
# Assay in all cases: NCI anticancer screen, dose series, 48 h
# [1] = tested on: SK-MEL-2 melanoma
# [2] = tested on: ACHN renal
# [3] = tested on: DLD-1 colon
# [4] = tested on: IGROV1 ovarian
# [5] = tested on: 786-0 renal
# [6] = tested on: HCT-15 colon
# [7] = tested on: SF-295 CNS
# [8] = tested on: HT29 colon
# [9] = tested on: SK-OV-3 ovarian
# [10] = tested on: M14 melanoma
# [11] = tested on: UO-31 renal
# [12] = tested on: OVCAR-4 ovarian
# [13] = tested on: LXFL 529 NSCLC
# [14] = tested on: SNB-19 CNS
# [15] = tested on: K-562 leukemia
# [16] = tested on: COLO 205 colon
# [17] = tested on: SNB-78 CNS
# [18] = tested on: MOLT-4 leukemia
# [19] = tested on: UACC-257 melanoma
# [20] = tested on: MALME-3M melanoma
# [21] = tested on: XF 498 CNS
# [22] = tested on: SF-539 CNS
# [23] = tested on: SK-MEL-28 melanoma
# [24] = tested on: OVCAR-3 ovarian
# [25] = tested on: CAKI-1 renal
# [26] = tested on: OVCAR-8 ovarian
# [27] = tested on: RXF-631 renal
# [28] = tested on: HCT-116 colon
# [29] = tested on: SF-268 CNS
# [30] = tested on: SNB-75 CNS
# [31] = tested on: SW-620 colon
# [32] = tested on: KM20L2 colon
# [33] = tested on: CCRF-CEM leukemia
# [34] = tested on: EKVX NSCLC
# [35] = tested on: SN12C renal
# [36] = tested on: DMS 114 small cell lung
# [37] = tested on: U251 CNS
# [38] = tested on: NCI-H460 lung
# [39] = tested on: KM12 colon
# [40] = tested on: RXF 393 renal
# [41] = tested on: LOX IMVI melanoma
# [42] = tested on: NCI-H522 lung
# [43] = tested on: DMS 273 small cell lung
# [44] = tested on: RPMI-8226 leukemia
# [45] = tested on: NCI-H226 lung
# [46] = tested on: HCC-2998 colon
# [47] = tested on: HOP-62 NSCLC
# [48] = tested on: TK-10 renal
# [49] = tested on: M19-MEL melanoma
# [50] = tested on: A549 NSCLC
# [51] = tested on: A498 renal
# [52] = tested on: SK-MEL-5 melanoma
# [53] = tested on: UACC-62 melanoma
# [54] = tested on: NCI-H23 lung
# [55] = tested on: MDA-MB-231 breast
# [56] = tested on: HS 578T breast
# [57] = tested on: MCF7 breast
# [58] = tested on: HL-60(TB) leukemia
# [59] = tested on: OVCAR-5 ovarian
# [60] = tested on: HOP-92 NSCLC
# [61] = tested on: SR leukemia
# [62] = tested on: MDA-N
# [63] = tested on: DU-145 prostate
# [64] = tested on: BT-549 breast
# [65] = tested on: T-47D breast
# [66] = tested on: MDA-MB-435
# [67] = tested on: PC-3 prostate
# [68] = tested on: HOP-18 NSCLC
smiles,measurement,setting,value
O=C1CCCCCCCCCCC(=O)C2CCOCCOCCOCCC1Cc1cccc(n1)C2,TGI,[1],> 100 µM
same,TGI,[2],> 100 µM
same,TGI,[3],> 100 µM
same,TGI,[4],> 100 µM
same,TGI,[5],> 100 µM
same,TGI,[6],> 100 µM
same,TGI,[7],> 100 µM
same,TGI,[8],> 100 µM
same,TGI,[9],> 100 µM
same,TGI,[10],> 100 µM
same,TGI,[11],> 100 µM
same,TGI,[12],> 100 µM
same,TGI,[13],> 100 µM
same,TGI,[14],> 100 µM
same,TGI,[15],> 100 µM
same,TGI,[16],> 100 µM
same,TGI,[17],> 100 µM
same,TGI,[18],> 100 µM
same,TGI,[19],> 100 µM
same,TGI,[20],> 100 µM
same,TGI,[21],> 100 µM
same,TGI,[22],> 100 µM
same,TGI,[23],> 100 µM
same,TGI,[24],> 100 µM
same,TGI,[25],> 100 µM
same,TGI,[26],> 100 µM
same,TGI,[27],> 100 µM
same,TGI,[28],> 100 µM
same,TGI,[29],> 100 µM
same,TGI,[30],> 100 µM
same,TGI,[31],> 100 µM
same,TGI,[32],> 100 µM
same,TGI,[33],> 100 µM
same,TGI,[34],> 100 µM
same,TGI,[35],> 100 µM
same,TGI,[36],> 100 µM
same,TGI,[37],> 100 µM
same,TGI,[38],> 100 µM
same,TGI,[39],> 100 µM
same,TGI,[40],> 100 µM
same,TGI,[41],> 100 µM
same,TGI,[42],> 100 µM
same,TGI,[43],> 100 µM
same,TGI,[44],> 100 µM
same,TGI,[45],> 100 µM
same,TGI,[46],> 100 µM
same,TGI,[47],> 100 µM
same,TGI,[48],> 100 µM
same,TGI,[49],> 100 µM
same,TGI,[50],> 100 µM
same,TGI,[51],> 100 µM
same,TGI,[52],> 100 µM
same,TGI,[53],> 100 µM
same,TGI,[54],> 100 µM
Cc1cccc(C)c1NC(=O)/C(Cl)=C(/Cl)C(=O)O,TGI,[1],31.5 µM
same,TGI,[2],29.4 µM
same,TGI,[3],17.8 µM
same,TGI,[4],40.8 µM
same,TGI,[5],31.3 µM
same,TGI,[55],41.7 µM
same,TGI,[6],34.8 µM
same,TGI,[7],> 56.1 µM
same,TGI,[8],39.3 µM
same,TGI,[56],83.2 µM
same,TGI,[57],46.3 µM
same,TGI,[9],45.5 µM
same,TGI,[10],12.6 µM
same,TGI,[11],21.7 µM
same,TGI,[12],33.5 µM
same,TGI,[13],15.2 µM
same,TGI,[14],> 70.1 µM
same,TGI,[15],17.4 µM
same,TGI,[16],11.4 µM
same,TGI,[17],> 74.6 µM
same,TGI,[58],> 100 µM
same,TGI,[59],40.6 µM
same,TGI,[60],30.3 µM
same,TGI,[18],27.5 µM
same,TGI,[19],29.8 µM
same,TGI,[20],29.7 µM
same,TGI,[61],> 57.1 µM
same,TGI,[21],28.6 µM
same,TGI,[22],53.9 µM
same,TGI,[23],35.1 µM
same,TGI,[24],41.8 µM
same,TGI,[25],15.1 µM
same,TGI,[62],36.8 µM
same,TGI,[26],40.9 µM
same,TGI,[28],36.4 µM
same,TGI,[29],32.6 µM
same,TGI,[30],43.4 µM
same,TGI,[31],14.9 µM
same,TGI,[32],20.8 µM
same,TGI,[33],14.1 µM
same,TGI,[34],35.7 µM
same,TGI,[63],64.8 µM
same,TGI,[35],33.7 µM
same,TGI,[64],31.5 µM
same,TGI,[36],43.2 µM
same,TGI,[37],47.5 µM
same,TGI,[38],> 69.9 µM
same,TGI,[65],66.2 µM
same,TGI,[66],51 µM
same,TGI,[67],50.4 µM
same,TGI,[39],23 µM
same,TGI,[40],33.9 µM
same,TGI,[41],34.3 µM
same,TGI,[42],8.92 µM
same,TGI,[43],35.9 µM
same,TGI,[44],37.1 µM
same,TGI,[68],38.2 µM
same,TGI,[45],27.4 µM
same,TGI,[46],32.2 µM
same,TGI,[47],> 81.7 µM
same,TGI,[48],21.6 µM
same,TGI,[49],43.7 µM
same,TGI,[50],45.3 µM
same,TGI,[51],60.6 µM
same,TGI,[52],34.5 µM
same,TGI,[53],20.6 µM
same,TGI,[54],38.6 µM
